The source of these data is patent US12303509B2, “Compounds for the treatment of BRAF-associated diseases and disorders” (Pfizer Inc., priority 2020, dated 2025).

One data set has as its system A375 cells. The data set is described as follows: Cellular phospho-ERK inhibition assay in A375 cells. The format is cell-based. To be noted: Homo sapiens, A-375, A375 cells (head prints A357), 2 hours treatment, read-out: A357 cell IC50. How it is done:
A375 and H1755 cells were obtained from the American Type Culture Collection (ATCC, Rockville, MD). A375 cells were maintained in DMEM growth medium containing 10% FBS. H1755 cells were maintained in RPMI growth medium containing 10% FBS.
Cells were harvested according to standard protocols, counted and plated onto flat-bottom, 96-well tissue culture plates (Costar #3599) at 2.5×10^4 cells/well for A375 cells and 1.5×10^4 cells/well for H1755 cells in 100 μL/well of growth medium containing 10% FBS. After an overnight incubation at 37° C. with 5% CO2 cells were treated for 2 hours at 37° C., 5% CO2 with compounds prepared as a 9-point, 1:3.33 fold dilution series with final compound concentrations ranging from 66 pM-10 μM and a constant DMSO concentration of 0.25%. Control wells contained either 0.25% DMSO alone (uninhibited control) or 10 μM binimetinib (complete inhibition control). The levels of phosphorylated ERK are determined using an In Cell Western protocol: following compound incubation, growth medium was discarded, and cells were fixed with 0.4% formaldehyde in PBS for 20 minutes at room temperature. Cells were permeabilized with 100% methanol for 10 minutes at room temperature. Plates were washed with PBS containing 0.05% Tween-20 and blocked for 1 hour at room temperature with LI-COR Blocking Buffer (LI-COR Biosciences; Cat #927-40000). Plates were then incubated for 2 hours at room temperature with 50 μL of a 1:400 dilution of anti-phospho-ERK1/2 (Thr202/Tyr204) (Cell Signaling; Cat #9101) and a 1:1000 dilution of anti-GAPDH (Millipore; Cat #MAB374) in LI-COR blocking buffer containing 0.05% Tween-20. Plates were washed with PBS containing […] Tween-20 then incubated at room temperature for 1 hour with 50 μL of a 1:1000 dilution of anti-rabbit AlexaFluor 680 (Life Technologies; Cat #A21109) and a 1:1000 dilution of anti-mouse IRDye 800CW (LI-COR; Cat #926-32210) in LI-COR blocking buffer containing 0.05% Tween-20. Plates were analyzed by reading on an Odyssey CLx infrared scanner. For each well, the phospho-ERK signal was normalized to the GAPDH signal and converted to POC using the following equation:
[formula] • Where: • Xmax Average Uninhibited Controls • Xmin Average Complete Inhibition Controls IC50 values were then calculated using a 4-parameter fit in XLfit software and are provided in Table A1.

Data set [1] deals with full-length FLAG-tagged B-Raf(V600E) (Homo sapiens (Human), UniProt P15056, V600E). Description: BRAF V600E enzyme assay (TR-FRET competitive displacement). The format is binding. Particulars: averaged IC50; TR-FRET tracer displacement, 60 min. How it is done: A competitive displacement assay was configured for B-Raf that monitors the amount of a fluorescently-tagged “tracer” bound to B-Raf via TR-FRET from an anti-tag Eu-labeled antibody also bound to B-Raf. For full-length FLAG-tagged B-Raf(V600E), the assay mixtures consisted of 25 mM K^+HEPES, pH 7.4, 10 mM MgCl2, 0.01% Triton X-100, 1 mM DTT, 2% DMSO (from compound), 50 nM Tracer 1710 (ThermoFisher, PR9176A), 0.5 nM Eu anti-FLAG (M2)-cryptate Ab (Cisbio, 61FG2KLB) and 5 nM full-length, N-terminally FLAG-tagged B-Raf(V600E) (Origene Technologies, TP700031. Compounds were typically diluted in DMSO across an 11-point dosing range created using a 3-fold serial dilution protocol at a top dose of 10 μM. The assay was run in 384-well, polystyrene, low-volume, non-treated, white microtiter plates (Costar 4512) in a final volume of 12 μL. Low control wells included 1 μM of a potent B-Raf inhibitor as a control. The assays were incubated at ambient temperature (typically 22° C.) for 60 min and then read on a PerkinElmer EnVision microplate reader using standard TRF settings (λEx=320 nm, λEm=615 & 665 nm). The ratioed counts (665 nm/615 nm) were converted to percent of control (POC) using the following equation:
[formula] • where: • Xmax Average Uninhibited Controls • Xmin Average Background
A 4-parameter logistic model was the fit to the POC data for each compound. From that fit, the IC50 was estimated and is defined as the concentration of compound at which the best-fit curve crosses 50 POC.
For orientation: In TR-FRET formats the signal depends on donor and acceptor labels being close together.

In a further data set the target is BCRP (Homo sapiens (Human), UniProt Q9UNQ0). The data set is described as follows: BCRP MDCKII permeability assay: efflux ratio. The format is in vitro ADME. Particulars: dog.
BCRP, sequence (Q9UNQ0 whole entry): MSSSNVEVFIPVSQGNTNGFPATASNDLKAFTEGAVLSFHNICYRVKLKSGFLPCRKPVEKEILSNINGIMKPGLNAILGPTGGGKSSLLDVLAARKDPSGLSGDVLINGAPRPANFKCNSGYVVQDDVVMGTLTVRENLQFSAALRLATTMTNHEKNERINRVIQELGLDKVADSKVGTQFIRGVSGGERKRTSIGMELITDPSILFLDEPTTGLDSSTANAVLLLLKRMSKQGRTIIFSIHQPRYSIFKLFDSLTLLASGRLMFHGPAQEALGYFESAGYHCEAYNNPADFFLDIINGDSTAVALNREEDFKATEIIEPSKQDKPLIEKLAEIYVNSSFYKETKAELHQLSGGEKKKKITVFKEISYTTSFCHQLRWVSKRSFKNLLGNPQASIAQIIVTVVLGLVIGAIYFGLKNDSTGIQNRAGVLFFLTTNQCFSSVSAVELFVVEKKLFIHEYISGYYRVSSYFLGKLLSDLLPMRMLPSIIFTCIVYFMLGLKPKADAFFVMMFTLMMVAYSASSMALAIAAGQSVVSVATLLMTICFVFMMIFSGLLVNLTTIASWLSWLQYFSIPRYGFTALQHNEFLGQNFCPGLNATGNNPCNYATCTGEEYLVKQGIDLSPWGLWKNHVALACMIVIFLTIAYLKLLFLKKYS
The target in a further data set is P-gp (MDR1) (Homo sapiens (Human), UniProt P08183). The data set is described as follows: MDR1 LLC-PK1 permeability assay: efflux ratio. The format is in vitro ADME. Particulars: pig. The source says: (§1) Final organic concentration in the assay was 1%.
P-gp (MDR1), sequence (P08183 whole entry, species assumed): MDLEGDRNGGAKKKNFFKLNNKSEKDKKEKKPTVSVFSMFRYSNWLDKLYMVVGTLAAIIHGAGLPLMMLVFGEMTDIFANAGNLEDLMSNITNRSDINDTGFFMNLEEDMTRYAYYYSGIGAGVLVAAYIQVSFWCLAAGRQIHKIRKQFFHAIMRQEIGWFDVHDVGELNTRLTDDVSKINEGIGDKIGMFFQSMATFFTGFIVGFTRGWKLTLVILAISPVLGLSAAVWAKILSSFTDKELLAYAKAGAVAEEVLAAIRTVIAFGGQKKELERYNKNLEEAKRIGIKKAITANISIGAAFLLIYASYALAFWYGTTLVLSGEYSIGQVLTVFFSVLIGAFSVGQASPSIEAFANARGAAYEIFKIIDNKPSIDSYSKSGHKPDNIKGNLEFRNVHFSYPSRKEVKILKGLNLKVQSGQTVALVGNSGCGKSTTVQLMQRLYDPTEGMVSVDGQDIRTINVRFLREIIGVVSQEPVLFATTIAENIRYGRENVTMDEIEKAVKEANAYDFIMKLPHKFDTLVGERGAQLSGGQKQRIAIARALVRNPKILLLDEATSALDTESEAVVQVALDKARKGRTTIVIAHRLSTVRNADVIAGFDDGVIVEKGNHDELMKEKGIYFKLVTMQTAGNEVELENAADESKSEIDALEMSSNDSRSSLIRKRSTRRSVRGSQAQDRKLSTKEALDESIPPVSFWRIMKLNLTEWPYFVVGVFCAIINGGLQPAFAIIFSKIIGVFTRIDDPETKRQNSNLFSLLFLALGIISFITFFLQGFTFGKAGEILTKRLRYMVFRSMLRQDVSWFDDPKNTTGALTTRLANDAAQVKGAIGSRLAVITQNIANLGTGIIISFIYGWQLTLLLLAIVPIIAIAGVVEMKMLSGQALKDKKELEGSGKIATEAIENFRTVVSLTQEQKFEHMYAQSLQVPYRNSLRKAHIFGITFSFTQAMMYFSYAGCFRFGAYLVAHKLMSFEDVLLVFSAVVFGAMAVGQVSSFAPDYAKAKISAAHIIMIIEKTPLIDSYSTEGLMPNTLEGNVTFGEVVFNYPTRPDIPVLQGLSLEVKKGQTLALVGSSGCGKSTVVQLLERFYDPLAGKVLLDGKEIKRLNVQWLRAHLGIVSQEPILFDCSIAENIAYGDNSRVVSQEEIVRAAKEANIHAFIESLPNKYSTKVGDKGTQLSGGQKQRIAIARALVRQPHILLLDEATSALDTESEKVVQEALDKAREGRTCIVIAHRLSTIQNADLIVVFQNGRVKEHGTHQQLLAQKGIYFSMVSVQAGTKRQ
Data set [2] can be described thus: MDR1 LLC-PK1 and BCRP MDCKII permeability assay: permeability coefficient (Papp). The format is in vitro ADME.
From the text: as §1

Counter-ions that a name gives are not always drawn.

full-length FLAG-tagged B-Raf(V600E), sequence (P15056 whole entry V600E): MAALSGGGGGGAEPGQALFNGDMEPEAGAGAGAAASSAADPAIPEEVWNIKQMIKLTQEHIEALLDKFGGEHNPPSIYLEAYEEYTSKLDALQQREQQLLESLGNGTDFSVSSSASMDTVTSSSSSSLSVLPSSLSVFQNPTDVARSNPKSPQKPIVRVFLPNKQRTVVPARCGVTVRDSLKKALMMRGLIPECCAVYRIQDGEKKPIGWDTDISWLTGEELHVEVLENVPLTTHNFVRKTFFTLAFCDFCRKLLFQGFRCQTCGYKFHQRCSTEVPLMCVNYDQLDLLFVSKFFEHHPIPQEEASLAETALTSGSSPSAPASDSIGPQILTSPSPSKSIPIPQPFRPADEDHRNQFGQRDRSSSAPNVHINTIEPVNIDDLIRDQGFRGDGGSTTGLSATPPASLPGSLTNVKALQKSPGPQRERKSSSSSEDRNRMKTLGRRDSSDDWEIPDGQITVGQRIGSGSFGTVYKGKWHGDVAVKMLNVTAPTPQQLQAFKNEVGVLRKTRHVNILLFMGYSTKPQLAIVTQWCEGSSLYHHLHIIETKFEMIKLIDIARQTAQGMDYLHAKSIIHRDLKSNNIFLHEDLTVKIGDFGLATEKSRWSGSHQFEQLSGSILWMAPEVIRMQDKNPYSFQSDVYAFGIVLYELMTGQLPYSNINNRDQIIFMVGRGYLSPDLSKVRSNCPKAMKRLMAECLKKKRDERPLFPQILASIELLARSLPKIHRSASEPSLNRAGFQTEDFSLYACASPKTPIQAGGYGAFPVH

For orientation: IC50 means the concentration needed to halve the response being measured. In the case of `Cc1c(Nc2c(F)ccc(NS(=O)(=O)N(C)C3CCOC3)c2Cl)ccc2ncn(C)c(=O)c12` (centres unmarked) [Example 72, N-(2-chloro-3-((3,5-dimethyl-4-oxo-3,4-dihydroquinazolin-6-yl)amino)-4-fluorophenyl)-(N-methyl-N-(tetrahydrofuran-3-yl))-sulfamide], the IC50 with A375 cells was 195 nM; in data set [1], 299 nM.

For the compound `Cc1c(Nc2c(F)ccc(NS(=O)(=O)N(C)C3CC3)c2Cl)ccc2ncn(C)c(=O)c12` [Example 73, N-(2-chloro-3-((3,5-dimethyl-4-oxo-3,4-dihydroquinazolin-6-yl)amino)-4-fluorophenyl)-(N-cyclopropyl-N-methyl)-sulfamide], the IC50 worked out at 121 nM in the data set on A375 cells and 234 nM in data set [1].

Regarding `Cc1c(Nc2c(F)ccc(NS(=O)(=O)N(C)C3CCC3)c2Cl)ccc2ncn(C)c(=O)c12` [Example 74, N-(2-chloro-3-((3,5-dimethyl-4-oxo-3,4-dihydroquinazolin-6-yl)amino)-4-fluorophenyl)-(N-cyclobutyl-N-methyl)-sulfamide], the figures for the IC50 (with A375 cells; in data set [1]) were 160 nM and 203 nM, respectively.

On to `COC1CCN(S(=O)(=O)Nc2ccc(F)c(Nc3ccc4ncn(C)c(=O)c4c3C)c2Cl)CC1` [Example 75, N-(2-chloro-3-((3,5-dimethyl-4-oxo-3,4-dihydroquinazolin-6-yl)amino)-4-fluorophenyl)-4-methoxypiperidine-1-sulfonamide trifluoroacetate], for which the IC50 with A375 cells was determined as 114 nM; in data set [1], 191 nM.

On to `Cc1c(Nc2c(F)ccc(NS(=O)(=O)N3CCC(C(F)(F)F)C3)c2Cl)ccc2ncn(C)c(=O)c12` (centres unmarked) [Example 76, N-(2-chloro-3-((3,5-dimethyl-4-oxo-3,4-dihydroquinazolin-6-yl)amino)-4-fluorophenyl)-3-(trifluoromethyl)pyrrolidine-1-sulfonamide trifluoroacetate], for which the half-maximal inhibitory concentration (IC50) in the data set with A375 cells stood at 622 nM; in data set [1], 183 nM.

For `Cc1c(Nc2c(F)ccc(NS(=O)(=O)N3CCC(O)CC3)c2Cl)ccc2ncn(C)c(=O)c12` [Example 77, N-(2-chloro-3-((3,5-dimethyl-4-oxo-3,4-dihydroquinazolin-6-yl)amino)-4-fluorophenyl)-4-hydroxypiperidine-1-sulfonamide trifluoroacetate], the IC50 in the data set on A375 cells was 127 nM; in data set [1] it was 177 nM.

Broadly, the efflux ratio is the permeability from basolateral to apical divided by that in the opposite direction, in the common usage. As for `Cc1c(Nc2c(F)ccc(NS(=O)(=O)N3CCC4CC4C3)c2Cl)ccc2ncn(C)c(=O)c12` (centres unmarked) [Example 80], the efflux ratio at 2 h, 1 µM at BCRP amounted to 0.6. For the same compound, the concentration for half-maximal inhibition (IC50) with A375 cells was 311 nM; in data set [1] it was 103 nM.

In the case of `Cc1c(Nc2c(F)ccc(NS(=O)(=O)N3CC4CCC3C4)c2Cl)ccc2ncn(C)c(=O)c12` (centres unmarked) [Example 81, N-(2-chloro-3-((3,5-dimethyl-4-oxo-3,4-dihydroquinazolin-6-yl)amino)-4-fluorophenyl)-2-azabicyclo[2.2.1]heptane-2-sulfonamide trifluoroacetate], the values for the IC50 (in the data set with A375 cells; in data set [1]) were 133 nM and 75 nM, respectively.

For orientation: Papp means a coefficient for how fast a substance crosses the barrier. `Cn1cnc2ccc(Nc3c(F)ccc(NS(=O)(=O)N4CC(OC(F)F)C4)c3Cl)c(Cl)c2c1=O` [Example 143, N-(2-chloro-3-((5-chloro-3-methyl-4-oxo-3,4-dihydroquinazolin-6-yl)amino)-4-fluorophenyl)-3-(difluoromethoxy)azetidine-1-sulfonamide]: the efflux ratio at 2 h, 1 µM at P-gp (MDR1) came out at 2.6; at BCRP, 3.9. For the same compound, the IC50 in the data set on A375 cells worked out at 45 nM. The same compound came in with a Papp at 2 h, 1 µM in data set [2] of 16 ×10⁻⁶ cm/s.

With `Cn1cnc2ccc(Nc3c(F)ccc(NS(=O)(=O)N4CC(OC(F)F)C4)c3Cl)c(F)c2c1=O` [Example 144, N-(2-chloro-4-fluoro-3-((5-fluoro-3-methyl-4-oxo-3,4-dihydroquinazolin-6-yl)amino)phenyl)-3-(difluoromethoxy)azetidine-1-sulfonamide], the efflux ratio at 2 h, 1 µM at P-gp (MDR1) turned out to be 5.2. Also, the IC50 in the data set on A375 cells came to 33 nM; in data set [1], 10 nM. Moreover, the Papp at 2 h, 1 µM in data set [2] stood at 27 ×10⁻⁶ cm/s.

Consider `Cc1c(Nc2c(F)ccc(NS(=O)(=O)N3CC(C#N)C3)c2Cl)ccc2ncn(C)c(=O)c12` [Example 146, N-(2-chloro-3-((3,5-dimethyl-4-oxo-3,4-dihydroquinazolin-6-yl)amino)-4-fluorophenyl)-3-cyanoazetidine-1-sulfonamide trifluoroacetate], for which the efflux ratio at 2 h, 1 µM at P-gp (MDR1) stood at 6.9. The values for the IC50 (in the data set on A375 cells; in data set [1]) were 31 nM and 27 nM, respectively. In data set [2], this compound gave a Papp at 2 h, 1 µM of 17 ×10⁻⁶ cm/s.

Regarding `Cc1c(Nc2c(F)ccc(NS(=O)(=O)N3CC(C)C3)c2Cl)ccc2ncn(C)c(=O)c12` [Example 147, N-(2-chloro-3-((3,5-dimethyl-4-oxo-3,4-dihydroquinazolin-6-yl)amino)-4-fluorophenyl)-3-methylazetidine-1-sulfonamide trifluoroacetate], the efflux ratio at 2 h, 1 µM at P-gp (MDR1) worked out at 1. The IC50 in the data set with A375 cells was determined as 67 nM; in data set [1], 19 nM. Also, in data set [2], the apparent permeability (Papp) at 2 h, 1 µM was determined as 28 ×10⁻⁶ cm/s.

For `Cc1c(Nc2c(F)ccc(NS(=O)(=O)N3CCC4CC43)c2Cl)ccc2ncn(C)c(=O)c12` (centres unmarked) [Example 153, N-(2-chloro-3-((3,5-dimethyl-4-oxo-3,4-dihydroquinazolin-6-yl)amino)-4-fluorophenyl)-2-azabicyclo[3.1.0]hexane-2-sulfonamide trifluoroacetate], the half-inhibitory concentration (IC50) in the data set with A375 cells came out at 310 nM; in data set [1], 71 nM.

As to `Cc1c(Nc2c(F)ccc(NS(=O)(=O)N3CC(COC(F)(F)F)C3)c2Cl)ccc2ncn(C)c(=O)c12` [Example 156, N-(2-chloro-3-((3,5-dimethyl-4-oxo-3,4-dihydroquinazolin-6-yl)amino)-4-fluorophenyl)-3-((trifluoromethoxy)methyl)azetidine-1-sulfonamide trifluoroacetate], the half-inhibitory concentration (IC50) was determined as 872 nM in the data set on A375 cells and 202 nM in data set [1].

On to `Cc1c(Nc2c(F)ccc(NS(=O)(=O)N3CC(OC(F)(F)F)C3)c2Cl)ccc2ncn(C)c(=O)c12` [Example 162, N-(2-chloro-3-((3,5-dimethyl-4-oxo-3,4-dihydroquinazolin-6-yl)amino)-4-fluorophenyl)-3-(trifluoromethoxy)azetidine-1-sulfonamide], for which the IC50 in the data set on A375 cells stood at 1280 nM; in data set [1], 114 nM.

With `Cc1c(Nc2c(F)ccc(NS(=O)(=O)N3CC(COCF)C3)c2Cl)ccc2ncn(C)c(=O)c12` [Example 164, N-(2-chloro-3-((3,5-dimethyl-4-oxo-3,4-dihydroquinazolin-6-yl)amino)-4-fluorophenyl)-3-((fluoromethoxy)methyl)azetidine-1-sulfonamide trifluoroacetate], the half-inhibitory concentration (IC50) in the data set with A375 cells came out at 1400 nM; in data set [1] it was 113 nM.
